From BigSolDB 2.1

O=C(O)c1cc([N+](=O)[O-])cc([N+](=O)[O-])c1O
solubility (mole fraction)
Conditions | 278.15 K | 283.15 K | 288.15 K | 293.15 K | 298.15 K | 303.15 K | 308.15 K | 313.15 K | 318.15 K | 323.15 K
in 1,4-dioxane | – | – | 0.044 | 0.0495 | 0.0554 | 0.0622 | 0.0695 | 0.0778 | 0.0877 | 0.0994
in DMF | 0.0853 | 0.0951 | 0.107 | 0.119 | 0.135 | 0.152 | 0.171 | 0.19 | 0.214 | 0.241
in DMSO | – | – | – | 0.0749 | 0.0869 | 0.0999 | 0.114 | 0.13 | 0.149 | 0.172
in NMP | 0.0924 | 0.103 | 0.116 | 0.13 | 0.146 | 0.166 | 0.185 | 0.207 | 0.234 | 0.264
in acetonitrile | 0.0108 | 0.0125 | 0.0149 | 0.0177 | 0.0209 | 0.0248 | 0.029 | 0.0349 | 0.0411 | 0.0485
in cyclohexane | – | 0.00292 | 0.0036 | 0.00449 | 0.00558 | 0.00686 | 0.00836 | 0.0104 | 0.0128 | 0.0156
in ethanol | 0.0465 | 0.0518 | 0.0582 | 0.0659 | 0.0756 | 0.0862 | 0.0977 | 0.11 | 0.124 | 0.14
in ethyl acetate | 0.046 | 0.0501 | 0.0554 | 0.0619 | 0.0687 | 0.0771 | 0.0858 | 0.0966 | 0.109 | 0.122
in ethylene glycol | 0.0245 | 0.0277 | 0.0316 | 0.0365 | 0.0415 | 0.0476 | 0.054 | 0.062 | 0.0709 | 0.082
in isobutanol | 0.0139 | 0.0161 | 0.0198 | 0.0244 | 0.0295 | 0.0358 | 0.0439 | 0.0506 | 0.0589 | 0.0712
in isopropanol | 0.0262 | 0.03 | 0.0348 | 0.0402 | 0.0463 | 0.053 | 0.0608 | 0.0702 | 0.0808 | 0.0944
in n-butanol | 0.0116 | 0.0141 | 0.0172 | 0.0199 | 0.024 | 0.0301 | 0.0345 | 0.0424 | 0.049 | 0.0592
in n-propanol | 0.0364 | 0.0403 | 0.0456 | 0.0521 | 0.0597 | 0.068 | 0.0769 | 0.0866 | 0.0972 | 0.111
in water | 0.000646 | 0.000779 | 0.000964 | 0.0012 | 0.00145 | 0.00171 | 0.00198 | 0.00245 | 0.00301 | 0.00381
